What was measured:
Format in all cases: cell-based
[1] = target: T1, 17β-hydroxysteroid dehydrogenase type 2 (Homo sapiens, UniProt P37059); assay: Inhibition of 17β-HSD type 2 in MCF-7 cells stably expressing the isoenzyme (HPLC, tritium labeled estradiol); details: 2 nM estradiol, read-out: % Inhibition of the 17β-HSD enzyme type 2 (HSD2); for inhibition at 1 µM: MCF7, 1 μM compound; for inhibition at 10 µM: MCF7, 10 μM compound
T1 construct: expressed in transfected cells; host or cells: MCF-7
T1 sequence (P37059 1-387): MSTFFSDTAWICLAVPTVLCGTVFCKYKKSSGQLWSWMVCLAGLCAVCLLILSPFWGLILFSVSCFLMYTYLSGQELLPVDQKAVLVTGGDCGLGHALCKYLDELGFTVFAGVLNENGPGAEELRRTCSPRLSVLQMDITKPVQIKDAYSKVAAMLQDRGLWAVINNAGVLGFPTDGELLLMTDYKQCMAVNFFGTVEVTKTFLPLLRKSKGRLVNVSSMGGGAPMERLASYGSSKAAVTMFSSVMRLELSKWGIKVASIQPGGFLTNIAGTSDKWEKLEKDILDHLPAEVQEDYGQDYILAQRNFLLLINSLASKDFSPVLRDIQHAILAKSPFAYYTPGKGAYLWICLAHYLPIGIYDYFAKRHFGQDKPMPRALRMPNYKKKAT
Excerpt: (§1) Biological Testing Materials and Methods 1. Inhibition of the 17β-hydroxysteroid dehydrogenase type 1, type 2 and type 3 enzyme
(§2) The compounds were screened in respect of 17β-HSD enzyme activity in vitro on established M CF-7 cell lines, each stably expressing one of the respective 17β-HSD isoenzymes. The interconversion of substrate by each isoenzyme and the 17β-HSD inhibiting activity of chemical compounds in these cell lines were detected by HPLC system.
(§3) Varying amounts of the test compounds were incubated in the growth medium of the 17β-HSD expressing cells together tritium labeled substrate (2 nM estrone for 17β-HSD type 1; 2 nM estradiol for 17β-HSD type 2; and 2 nM androstenedione for 17β-HSD type 3). The medium samples were removed after exact incubation time and the reaction is stopped by trichloroacetic acid (TCA). The samples were analyzed by HPLC-coupled flow scintillation analysis.
(§4) For each enzyme type, the HSD-inhibiting activity of an individual test compound was calculated by comparing the conversion of a control sample without any test compound (referred to as “Negative Control”) to the (reduced) conversion of the test sample containing the particular compound to be tested (referred to as “Test Sample”).
(§5) Two concentrations of each compound were used. The number of the compound refers to the numbers indicated in the Experimental Section.

[2] = target: T2, 17β-hydroxysteroid dehydrogenase type 3 (Homo sapiens, UniProt P37058); assay: Inhibition of 17β-HSD type 3 in MCF-7 cells stably expressing the isoenzyme (HPLC, tritium labeled androstenedione); details: 2 nM androstenedione, read-out: % Inhibition of the 17β-HSD enzyme type 3 (HSD3); for inhibition at 1 µM: MCF7, 1 μM compound; for inhibition at 10 µM: MCF7, 10 μM compound
T2 construct: expressed in transfected cells; host or cells: MCF-7
T2 sequence (P37058 1-310): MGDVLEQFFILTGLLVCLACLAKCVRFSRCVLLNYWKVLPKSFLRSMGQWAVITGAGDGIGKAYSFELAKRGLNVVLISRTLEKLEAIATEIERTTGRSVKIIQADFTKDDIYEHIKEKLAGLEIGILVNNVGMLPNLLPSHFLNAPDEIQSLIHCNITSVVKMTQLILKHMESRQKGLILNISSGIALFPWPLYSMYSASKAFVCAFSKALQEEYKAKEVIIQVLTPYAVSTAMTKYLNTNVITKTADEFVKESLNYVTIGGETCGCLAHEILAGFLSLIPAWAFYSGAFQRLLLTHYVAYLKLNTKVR
Excerpt: as §1, §2, §3, §4, §5

[3] = target: T3, 17β-hydroxysteroid dehydrogenase type 1 (Homo sapiens, UniProt P14061); assay: Inhibition of 17β-HSD type 1 in MCF-7 cells stably expressing the isoenzyme (HPLC, tritium labeled estrone); details: 2 nM estrone, read-out: % Inhibition of the 17β-HSD enzyme type 1 (HSD1); for inhibition at 1 µM: MCF7, 1 μM compound; for inhibition at 10 µM: MCF7, 10 μM compound
T3 construct: expressed in transfected cells; host or cells: MCF-7
T3 sequence (P14061 1-328): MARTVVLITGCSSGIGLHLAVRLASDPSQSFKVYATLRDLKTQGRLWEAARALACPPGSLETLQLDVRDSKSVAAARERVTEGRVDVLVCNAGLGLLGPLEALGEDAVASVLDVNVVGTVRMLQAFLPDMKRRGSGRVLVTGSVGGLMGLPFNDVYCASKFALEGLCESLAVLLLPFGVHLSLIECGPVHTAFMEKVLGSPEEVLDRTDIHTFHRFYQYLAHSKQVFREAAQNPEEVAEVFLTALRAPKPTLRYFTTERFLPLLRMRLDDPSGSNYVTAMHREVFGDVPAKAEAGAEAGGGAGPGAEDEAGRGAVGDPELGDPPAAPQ
Excerpt: as §1, §2, §3, §4, §5

inhibition at 1 µM [1] [%] | inhibition at 10 µM [1] [%] | inhibition at 1 µM [2] [%] | inhibition at 10 µM [2] [%] | inhibition at 1 µM [3] [%] | inhibition at 10 µM [3] [%] | Structure (SMILES)
5.9 | 14.9 | 27.6 | 34.2 | 12.8 | 19.6 | CC1CCc2nc3sc4c(c3c(=O)n2CC1)CCCC4 (stereo not drawn) [Compound 14, 9-Methyl-2,3,4,7,8,9,10,11-octahydro-[1]benzothieno[2′,3′:4,5]pyrimido[1,2-a]azepin-13(1H)-one]
10.7 | 15.7 | -0.3 | 13.5 | 14.8 | 24.5 | CCOC(=O)C1CCCn2c1nc1sc3c(c1c2=O)CCCC3 (stereo not drawn) [Compound 15, 1,2,3,4,7,9,10,12-Octahydro-12-oxo-8H-[1]benzothieno[2,3-d]pyrido[1,2-a]pyrimidine-7-carboxylic acid ethyl ester]
3 | 24.8 | 13.6 | 22.9 | 17.2 | 18.6 | CCOC(=O)C1CCc2nc3sc4c(c3c(=O)n2CC1)CCCC4 (stereo not drawn) [Compound 16, 1,2,3,4,7,8,9,10,11,13-Decahydro-13-oxo-[1]benzothieno[2′,3′:4,5]pyrimido[1,2-a]azepine-9-carboxylic acid ethyl ester]
15.2 | 20.1 | 21.6 | 32.4 | 18.4 | 39.4 | CC1CCc2nc3sc4c(c3c(=O)n2CC1)CCCC4=O (stereo not drawn) [Compound 17, 2,3,8,9,10,11-Hexahydro-9-methyl-[1]benzothieno[2′,3′: 4,5]pyrimido[1,2-a]azepine-4,13(1H,7H)-dione]
18.7 | 23.8 | -3 | 21.3 | 0.5 | 9.5 | CCOC(=O)C1CCCn2c1nc1sc3c(c1c2=O)CCCC3=O (stereo not drawn) [Compound 18, 4,12-Dioxo-1,2,3,4,7,9,10,12-octahydro-8H-[1]benzothieno[2,3-d]pyrido[1,2-a]pyrimidine-7-carboxylic acid ethyl ester]
0.6 | 4.4 | 13 | 10.5 | 10.6 | 33.1 | CCOC(=O)C1CCc2nc3sc4c(c3c(=O)n2CC1)CCCC4=O (stereo not drawn) [Compound 19, 4,13-Dioxo-1,2,3,4,7,8,9,10,11,13-decahydro-[1]benzothieno[2′,3′: 4,5]pyrimido[1,2-a]azepine-9-carboxylic acid ethyl ester]
11.2 | 6.2 | 32 | 100 | 10.4 | 45.7 | CC1CCc2nc3sc4c(c3c(=O)n2CC1)CCC(C=O)=C4Cl (stereo not drawn) [Compound 20, 4-Chloro-9-methyl-1,2,7,8,9,10,11,13-octahydro-13-oxo-[1]benzothieno[2′,3′: 4,5]pyrimido [1,2-a]azepine-3-carbaldehyde]
13.1 | 32.9 | 20 | 87.3 | 10.9 | 33.5 | CCOC(=O)C1CCc2nc3sc4c(c3c(=O)n2CC1)CCC(C=O)=C4Cl (stereo not drawn) [Compound 21, 4-Chloro-3-formyl-1,2,7,8,9,10,11,13-octahydro-13-oxo-[1]benzothieno[2′,3′: 4,5]pyrimido[1,2-a]azepine-9-carboxylic acid ethyl ester]
6.8 | 16.1 | 25.5 | 100 | 24.3 | 46.5 | CCCSC1=C(C=O)CCc2c1sc1nc3n(c(=O)c21)CCC(C(=O)OCC)CC3 (stereo not drawn) [Compound 22, 3-Formyl-1,2,7,8,9,10, 11,13-octahydro-13-oxo-4-(propylthio)-[1]benzothieno [2′,3′: 4,5]pyrimido[1,2-a]azepine-9-carboxylic acid ethyl ester]
9.7 | 17.7 | 19.5 | 89.5 | 17.4 | 64.7 | CCCSC1=C(C=O)CCc2c1sc1nc3n(c(=O)c21)CCC(C(=O)OC)CC3 (stereo not drawn) [Compound 23, 3-Formyl-1,2,7,8,9,10,11,13-octahydro-13-oxo-4-(propylthio)-[l]benzothieno[2′,3′: 4,5] pyrimido[1,2-a]azepine-9-carboxylic acid methyl ester]
3.1 | 19.3 | 18 | 59.6 | 24.9 | 32.3 | COC(=O)C1CCc2nc3sc4c(c3c(=O)n2CC1)CCC(C=O)=C4OC (stereo not drawn) [Compound 24, 3-Formyl-4-methoxy-1,2,7,8,9,10,11,13-octahydro-13-oxo-[1]benzothieno[2′,3′: 4,5]pyrimido [1,2-a]azepine-9-carboxylic acid methyl ester]
14 | 33.6 | -3.2 | 7.9 | 6.2 | 8.7 | O=c1c2c3c(sc2nc2ccccn12)CCCC3 [Compound 25, 1,2,3,4-Tetrahydro-12H-[1]benzothieno[2,3-d]pyrido[1,2-a]pyrimidin-12-one]
15.1 | 16.4 | -2.1 | 0.3 | 6.4 | -0.8 | O=C1CCCc2c1sc1nc3ccccn3c(=O)c21 [Compound 26, 2,3-Dihydro-12H-[l]benzothieno[2,3-d]pyrido[1,2-a]pyrimidin-4, 12(1H)-dione]
5.3 | 3.2 | 22.9 | 24.9 | 11.4 | 25.6 | CC1CCc2c(sc3nc4n(c(=O)c23)CCCCC4)C1 (stereo not drawn) [Compound 27, 3-Methyl-2,3,4,7,8,9, 10,11-octahydro-[1]benzothieno[2′,3′: 4,5]pyrimido-[1,2-a]azepin-13(1H)-one]
18.2 | 18.7 | 7.8 | 9.5 | 14.3 | 15.3 | CC1CCc2c(sc3nc4n(c(=O)c23)CCCCC4)C1=O (stereo not drawn) [Compound 28, 2,3,8,9,10,11-Hexahydro-3-methyl-[1]benzothieno[2′,3′: 4,5]pyrimido[1,2-a]azepin-4,13(1H,7H)-dione]
13.1 | 10.1 | 14.9 | 25.8 | -1 | 1.3 | CC(C)(C)C1CCc2c(sc3nc4n(c(=O)c23)CCCCC4)C1 (stereo not drawn) [Compound 29, 3-t-Butyl-2,3,4,7,8,9,10,11-octahydro-[1]benzothieno[2′,3′: 4,5]pyrimido-[1,2-a]azepin-13(1H)-one]

Source: patent US7754709B2 (Solvay Pharmaceuticals BV, priority 2003, dated 2010)
